Experimental data taken from PubChem BioAssay (NCI).
Where “and” joins values, the source holds several entries; their conditions need not be identical. Equal entries are not always repeated.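 Five compound concentrations were applied to cells in 96-well plates for 48 hours; endpoints were derived by simple linear interpolation of the resulting dose-response curve. The concentration for 50% growth inhibition is given as GI50. The concentration for full growth arrest is given as TGI.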

Tests used:
Test in all cases: NCI anticancer screen, dose series, 48 h
MDA-MB-435 = test system: MDA-MB-435
HS 578T breast = test system: HS 578T breast
MDA-MB-231 breast = test system: MDA-MB-231 breast
MCF7 breast = test system: MCF7 breast
M19-MEL melanoma = test system: M19-MEL melanoma
DMS 273 small cell lung = test system: DMS 273 small cell lung
HOP-18 NSCLC = test system: HOP-18 NSCLC
DLD-1 colon = test system: DLD-1 colon
LXFL 529 NSCLC = test system: LXFL 529 NSCLC

SMILES	GI50 (MDA-MB-435) [µM]	TGI (MDA-MB-435)	GI50 (HS 578T breast) [µM]	TGI (HS 578T breast) [µM]	GI50 (MDA-MB-231 breast)	TGI (MDA-MB-231 breast) [µM]	GI50 (MCF7 breast)	TGI (MCF7 breast)	TGI (M19-MEL melanoma) [µM]	TGI (DMS 273 small cell lung) [µM]	TGI (HOP-18 NSCLC) [µM]	TGI (DLD-1 colon) [µM]	TGI (LXFL 529 NSCLC) [µM]
C[C@]12CC[C@@H]3c4ccc(O)cc4CC[C@H]3[C@@H]1CC(Cc1ccccc1)(Cc1ccccc1)C2=O	20.7	57 µM	30.9	> 100	14.1 µM	28.5	15.6 µM	46.8 µM	–	–	–	–	–
[Mn+3].[O-][Cl+3]([O-])([O-])O.[O-]c1ccccc1C=NCCN1CC1.[O-]c1ccccc1C=NCCN1CC1	37	> 100 µM	33.6	> 100	20.9 µM	> 100	26.7 µM	> 100 µM	–	–	–	–	–
CCOc1ccc(Nc2ccnc3cc(Cl)ccc23)cc1	> 100	> 100 µM	38.6	> 100	> 100 µM	> 100	34.5 µM	> 100 µM	–	–	–	–	–
C#Cc1cccc(Nc2nc(C)nc3cc(NC(=O)CCl)ccc23)c1	1.49	4.75 µM	2.8	10.2	0.886 µM	3.92	0.836 µM	4.05 µM	–	–	–	–	–
Cc1ccc(NC(=O)C(=O)C2C(=O)NC(=O)NC2=O)c(C)c1	–	–	–	–	–	–	–	–	> 100	> 100	> 100	> 100	> 100
CN1C(c2ccccc2)CC(=NO)CC1c1ccccc1 (stereo not given)	61	–	–	–	–	–	44.3 µM	–	> 100	> 100	–	> 100	> 100
CCC(CO)Nc1nc(NCc2ccccc2)c2n[nH]c(C(C)C)c2n1 (stereo not given)	10	24 µM	11.6	34.3	15.8 µM	35.3	5.92 µM	25.9 µM	–	–	–	–	–
CC[C@H](C)[C@H](NC(=O)c1ncccn1)C(=O)N(C)[C@H](C[C@@H](OC(C)=O)c1nc(C(=O)N[C@@H](Cc2ccccc2)C[C@H](C)C(=O)OC)cs1)C(C)C	0.393	1.08 µM	1.25	> 25	1.4 µM	10.9	0.924 µM	> 25 µM	–	–	–	–	–
CC1(C)CC[C@]2(C(=O)NCCNCCN)CC[C@]3(C)C(=CC[C@@H]4[C@@]5(C)CCC(=O)C(C)(C)[C@@H]5CC[C@]43C)[C@@H]2C1	1.75	3.19 µM	1.92	4.17	1.82 µM	3.35	1.55 µM	3.08 µM	–	–	–	–	–
Cc1cccc2c(=O)c3c(sc12)c(NCCCN)nc1ccccc13	1.69	3.17 µM	–	–	1.52 µM	3.03	1.11 µM	2.57 µM	–	–	–	–	–
O=c1cc(-c2ccccc2)oc2c(O)c(O)ccc12	13	> 100 µM	37.2	> 100	23.2 µM	> 100	20 µM	> 100 µM	–	–	–	–	–
C=C[C@@H]1CCC/C=C/[C@@H]2C[C@H](O)C[C@H]2[C@H](O)/C=C/C(=O)O1	0.435	> 100 µM	0.477	> 100	0.379 µM	1.11	0.388 µM	–	–	–	–	–	–
COc1cccc(C2SC(C)C(=O)N2NC(=O)C(O)c2ccccc2)c1 (stereo not given)	> 100	> 100 µM	> 100	> 100	> 100 µM	> 100	> 100 µM	> 100 µM	–	–	–	–	–
COc1ccc(Cc2ccc3[nH]c(=O)cc(C)c3c2)cc1S(=O)(=O)O	–	> 100 µM	–	> 100	–	> 100	–	> 100 µM	–	–	–	–	–
O=[N+]([O-])c1cc(I)cc(/C=N/NS(=O)(=O)c2ccc(F)cc2)c1O	–	–	–	–	–	–	–	–	86.7	48.8	53.2	> 100	43.1
COc1ccc2c(c1)/C(=C\c1c(-c3ccccc3)nc3sccn13)C(=O)N2	0.04	0.287 µM	–	–	6.92 µM	23.5	> 100 µM	> 100 µM	–	–	–	–	–
O=C(O)c1nn(-c2ccc(Cl)cc2)c2c1C(=O)c1ccccc1C2=O	–	> 100 µM	–	> 100	–	> 100	–	> 100 µM	–	–	–	–	–
C/C(COc1ccc2oc(-c3ccccc3)cc(=O)c2c1)=N\O	0.556	2.94 µM	–	–	14.1 µM	36.4	10.1 µM	36.7 µM	–	–	–	–	–
Oc1ccc(Br)cc1C=NC1CCCCC1	–	> 100 µM	–	> 100	–	> 100	–	> 100 µM	–	–	–	–	–
COc1cc(/C=C2\C[C@H]3[C@@H]4CC=C5C[C@@H](O)CC[C@]5(C)[C@H]4CC[C@]3(C)[C@H]2O)ccc1OCCN1CCCCC1	0.945	1.8 µM	1.44	> 10.7	0.605 µM	1.39	1.31 µM	20.5 µM	–	–	–	–	–
C=C(C)[C@@H]1C/C=C(/COC(C)=O)CC[C@H]2O[C@@]2(C)CC/C=C(\C)CC1	> 100	> 100 µM	> 100	> 100	–	–	81 µM	> 100 µM	–	–	–	–	–
N#Cc1c(N)c(C(=O)c2ccc3c(c2)OCCO3)n2c1CCCC2	0.362	2.07 µM	3.08	> 74.9	6.47 µM	> 100	2.28 µM	> 100 µM	–	–	–	–	–
NCCCNCc1c2ccccc2c(CNCCCN)c2ccccc12	–	–	–	–	–	–	–	–	35.4	–	75	> 100	24.5
COC(=O)[C@@H](C)C[C@H](Cc1ccccc1)NC(=O)c1csc([C@@H](C[C@H](C(C)C)N(C)C(=O)[C@@H](NC(=O)[C@H]2CCCCN2C)c2ccc(F)cc2)OC(C)=O)n1	0.00081	0.00514 µM and 0.0274 µM	–	> 100	–	–	0.00229 µM and 0.0025 µM	25 µM and > 100 µM	–	–	–	–	–
C[C@]1(c2nc3c(C(N)=O)cccc3[nH]2)CCCN1	> 100	> 100 µM	> 100	> 100	98.3 µM and > 100 µM	> 100	34.2 µM and > 71.3 µM	> 100 µM	–	–	–	–	–
OCC#Cc1ccccc1C#Cc1ccc(C#Cc2ccccc2C#CCO)cc1	> 100	> 100 µM	24.3	58.7	25.5 µM	58.1	26.3 µM	> 100 µM	–	–	–	–	–
NC(=O)c1ccc(I)c([N+](=O)[O-])c1	> 75.6	> 100 µM	> 66.2	> 100	49.5 µM	> 100	> 80.5 µM	> 100 µM	–	–	–	–	–
